{"source": "patent US8247435B2", "about": "“Formulations for treating human and animal diseases” (priority 2009, dated 2012)", "origin": "cited, not measured here", "key": {"[1]": {"conditions": "300 mg/day, 4 months"}, "[2]": {"conditions": "highest dose 3000 mg/day"}, "[3]": {"conditions": "oral; MS patients on immunosuppressive or immunomodulatory therapies"}, "[4]": {"test_system": "VEGF-dependent angiogenesis", "conditions": "VEGF-expressing CAMs"}, "Candida": {"test_system": "Candida", "conditions": "600 mg orally 3 times a day for 15 days"}, "[5]": {"conditions": "humans; not identified at doses used"}, "normal bladder cells": {"test_system": "normal bladder cells", "conditions": "normal physiological range of urine excretion (10 μg/ml)"}, "[6]": {"assay": "not given", "remark": "listed apart in the source"}, "[7]": {"test_system": "Reuber H35 hepatoma cells", "conditions": "radiation in the presence of genistein; irradiation alone factor 20"}, "[8]": {"test_system": "human umbilical vein endothelial cells (HUVECs)", "conditions": "10 microM genistein"}, "[9]": {"test_system": "HTB-186 medulloblastoma cell line"}, "[10]": {"test_system": "non-small cell lung cancer", "conditions": "with carboplatin and paclitaxel"}, "[11]": {"test_system": "non-small cell lung cancer"}, "[12]": {"conditions": "500 mg/m^2/day"}, "ocular neovasculation": {"test_system": "ocular neovasculation", "conditions": "primates, systemic, twice weekly"}, "[13]": {"test_system": "human vascular endothelial cells", "conditions": "doses as low as"}, "Lewis lung carcinoma": {"test_system": "Lewis lung carcinoma", "conditions": "mice, day 20"}, "[14]": {"test_system": "rat 13762 mammary carcinoma", "conditions": "single agent, 40 mg/kg"}, "[15]": {"assay": "not given", "remark": "listed apart in the source"}, "[16]": {"conditions": "cancer patients, 145 patients"}, "[17]": {"assay": "not given", "remark": "listed apart in the source"}}, "note": "“Also recorded” adds a separate entry of the source. Where two headings read alike, the source gives them in different places.", "data": [{"molecule": "O=C(O)CCCCC1CCSS1", "note": "(stereo not drawn) [ALA, alpha-lipoic acid]", "values": [{"measurement": "patients who were responders or high responders", "setting": "[1]", "result": "22 of the 39"}]}, {"molecule": "CC(=O)O[C@H](CC(=O)[O-])C[N+](C)(C)C", "note": "[ALC, Acetyl-L-carnitine]", "values": [{"measurement": "side effects and toxicities", "setting": "[2]", "result": "no toxicities were noted"}, {"measurement": "patients with decreased fatigue intensity", "setting": "[3]", "result": 63, "unit": "%"}]}, {"molecule": "COC1=C(OC)C(=O)C(C/C=C(\\C)CC/C=C(\\C)CC/C=C(\\C)CC/C=C(\\C)CC/C=C(\\C)CC/C=C(\\C)CC/C=C(\\C)CC/C=C(\\C)CC/C=C(\\C)CCC=C(C)C)=C(C)C1=O", "note": "[CoQ10, ubiquinone]", "values": [{"measurement": "prevalence of memory loss on most recent follow-up", "setting": "from 8% on initial visit", "result": 4, "unit": "%"}, {"measurement": "prevalence of peripheral neuropathy on most recent follow-up", "setting": "from 10% on initial visit", "result": 2, "unit": "%"}, {"measurement": "prevalence of dyspnea on most recent follow-up", "setting": "from 58% on initial visit", "result": 12, "unit": "%"}, {"measurement": "prevalence of myalgia on most recent follow-up", "setting": "from 64% on initial visit", "result": 6, "unit": "%"}, {"measurement": "prevalence of fatigue on most recent follow-up", "setting": "from 84% on initial visit, average 240 mg/day, statin discontinued", "result": 16, "unit": "%"}]}, {"molecule": "CC(=O)N[C@@H](CS)C(=O)O", "note": "[NAC, N-Acetyl Cysteine]", "values": [{"measurement": "total vessel number relative to VEGF controls", "setting": "[4]", "result": "nearly half"}, {"measurement": "antifungal activity of peripheral blood monocytes (PBM)", "setting": "Candida", "result": "significantly enhanced"}]}, {"molecule": "COc1cc(/C=C/C(=O)CC(=O)/C=C/c2ccc(O)c(OC)c2)ccc1O", "note": "[curcumin]", "values": [{"measurement": "maximum tolerated dose", "setting": "[5]", "result": "≥ 8000", "unit": "mg per day"}]}, {"molecule": "O=c1c(-c2ccc(O)cc2)coc2cc(O)cc(O)c12", "note": "[genistein, 4′5,7-trihydroxyisoflavone]", "values": [{"measurement": "toxicity to normal bladder cells", "setting": "normal bladder cells", "result": "not exhibit toxicity"}, {"measurement": "mean plasma/serum genistein", "setting": "[6]; American study, Western diet", "result": 5.7, "unit": "nmol/L"}, {"measurement": "mean plasma/serum genistein", "setting": "[6]; Japanese study", "result": 248, "unit": "nmol/L"}, {"measurement": "plasma/serum genistein, range", "setting": "[6]; Japanese study", "result": "90 to 1204", "unit": "nmol/L"}, {"measurement": "excretion half-life", "setting": "[6]; with soy supplementation", "result": "seven"}, {"measurement": "factor by which survival was reduced", "setting": "[7]", "result": 10000}, {"measurement": "number of genes with altered expression of more than two fold", "setting": "[8]", "result": 256}, {"measurement": "increase of the antiproliferative effect of cisplatin", "setting": "[9]", "result": 1.3, "unit": "fold"}]}, {"molecule": "Oc1ccc(C=Cc2cc(O)cc(O)c2)cc1", "note": "[resveratrol, 3,4′,5-trihydroxystilbene]", "values": [{"measurement": "levels required for cancer chemopreventive effects in cells in vitro", "setting": "cells in vitro", "result": "at least 5 μM"}]}, {"molecule": "CC(C)[C@@H](CC[C@@H](C)[C@H]1CC[C@H]2[C@@H]3[C@H](O)C[C@H]4C[C@@H](NCCCNCCCCN)CC[C@]4(C)[C@H]3CC[C@]12C)OS(=O)(=O)O", "note": "[squalamine]", "values": [{"measurement": "objective responses, patients", "setting": "[10]; 300 mg/m^2/day for one or more cycles, response = 50% or greater reduction in tumor size", "result": 36, "unit": "%"}, {"measurement": "patients with an objective response", "setting": "[10]; all patients (11 of 36)", "result": "Thirty-one"}, {"measurement": "patients with dose-limiting toxicity", "setting": "[11]; 400 mg/m^2/day, arthralgia, myalgia, neutropenia", "result": "two of three"}, {"measurement": "tolerability", "setting": "[11]; continuously daily for 5 days with paclitaxel and carboplatin on day 1", "result": "well tolerated"}, {"measurement": "plasma concentrations relative to those required for antiangiogenic effects in preclinical studies", "setting": "[12]", "result": "at least an order of magnitude higher"}, {"measurement": "tolerability", "setting": "[12]", "result": "well tolerated"}, {"measurement": "dose producing inhibition of ocular neovasculation and partial regression of new vessels", "setting": "ocular neovasculation", "result": 12, "unit": "mg/m^2"}, {"measurement": "dose that halted proliferation of human vascular endothelial cells", "setting": "[13]", "result": 160, "unit": "nM"}, {"measurement": "number of lung metastases relative to controls", "setting": "Lewis lung carcinoma", "result": "reduced to half; also recorded: reduced by half"}, {"measurement": "tumor growth delay", "setting": "[14]", "result": "modest effect"}, {"measurement": "tolerability", "setting": "[15]; 384 mg/m^2/day, patients without prior exposure to squalamine", "result": "well-tolerated"}, {"measurement": "best-tolerated dose", "setting": "[15]; continuous intravenous infusion over 120 h, every 14 days, 19 patients", "result": 192, "unit": "mg/m^2/day"}]}, {"molecule": "O=c1[nH]c(=O)n(C2CCCO2)cc1F", "note": "(stereo not drawn) [tegafur alone, tegafur]", "values": [{"measurement": "50% survival time", "setting": "[16]", "result": 92, "unit": "days"}]}, {"molecule": "Cyanocobalamin [vitamin B12]", "values": [{"measurement": "amount excreted in the normal urine daily", "setting": "[17]; in vivo", "result": "About 30 mcg"}, {"measurement": "quantity excreted", "setting": "[17]; injected in a large dose up to 100 mcg", "result": "up to 90%"}]}, {"molecule": "angiostatin", "values": [{"measurement": "total vessel number relative to VEGF controls", "setting": "[4]", "result": "nearly half"}]}]}
